In patent publication US5683987A, “Therapeutic oligonucleotides targeting the human MDR1 and MRP genes” (The Board of Regents of the University of Nebraska, priority 1995, dated 1997):
Several values for one entry are separate records, joined by “and”; a condition that tells them apart may be missing. Equal entries are not always repeated. Where two headings read alike, the source gives them in different places.

Assays:
[1] = tested on: 8226/Dox4 human myeloma cells; experiment: Vincristine IC50 summary after MDR-oligo treatment; assay type: cell-based; settings: oligo 0.2 μM; compared to media control
Procedure: (§1) In vitro testing of MDR-Oligonucleotides was done on the multidrug-resistant (MDR+) RPMI-8226/Dox4 human multiple myeloma cell line (gift of Dr. William Dalton, Univ. Arizona Cancer Ctr., Tucson). Cells were incubated in vitro for 4 days at 37° C. with MDR-oligos at 0.2 μM final concentration; pulsed 18 hr with serial 5-fold dilutions of chemotherapeutic drug (vincristine) from 1×10^-4 M to 2×10^-10 M. Cells were then washed, and incubated for an additional 4 days. Tritiated thymidine (^3 H-TdR) was added for last 18 hr to measure status of cellular proliferation. Controls included MDR^+ 8226 cells similarly treated with vincristine but pretreated either with (a) control ODNs, or (b) culture medium only.

[2] = tested on: 8226/Dox4 cells; experiment: Parsimonious regression model estimates of count and Vincristine IC50; assay type: cell-based, human; settings: for Estimated Mean Count (cpm): 3H-TdR count at VCR Dose = 0, oligo alone, media only 159,500; for Fold Increase in drug sensitivity: compared to corresponding oligo control (no drug)
Procedure: as §1
The following mathematical/statistical model was used to analyze the effects of oligos and various drug treatments on targeted tumor cells in these studies. The model is based on experiments which generally involve treatment of tumor cells with one of several ODNs or media only, and with several dose levels of an anti-cancer agent (such as, for example, vincristine (VCR)) or media only. Analysis goals were to model the relationship of cell kill to the dose of VCR (for example), and to compare the effects of the various ODNs.
This final model contained 10 regressor variables.
Various estimates of parameters from the parsimonious model are shown in TABLE 13, which contains the model estimate of the count for each ODN with media only; differences here (when compared to "media only" [no ODN]) reflect the cell kill associated with the ODN alone. TABLE 13 also contains an estimate of IC50 values, the dose of vincristine (VCR) which is estimated to produce an expected count which is exactly half that expected with "media only" [no VCR]. While formal statistical comparisons of the IC50 values of the various ODNs is not possible, an ordering of the ODNs by estimated IC50 values is possible.

[3] = tested on: 8226/Dox cells; experiment: Sensitization of 8226/Dox cells to VCR by MDR-aptameric oligonucleotides; assay type: cell-based, human; settings: compared to media control
[4] = tested on: 8226/Dox cells; experiment: Sensitization of 8226/Dox cells to Vincristine by an MRP-oligo and MDR-ODNs; assay type: cell-based, human; settings: for IC50: Vincristine IC50 after oligo treatment, conditions as Example 2, read-out: IC50 dose; for Relative sensitization (fold increase): to Vincristine, vs medium only
Procedure: (§2) As shown in this example, several oligos which target the MDR1 gene are able to sensitize multidrug-resistant cell lines to the cytotoxic effects of the chemotherapeutic agent Vincristine. Tumor cells were treated in vitro with 10 μM of the indicated oligo for 4 days at 37° C., then counted, dispensed into individual tubes, and pulsed with Vincristine at various doses (serial 5-fold dilutions) for 3 hrs. The cells were then washed and seeded into 96-well plates (quadruplicate replicates) for pulsing with tritiated thymidine 3 days later. Cells were harvested the next day (=4th day after drug treatment). Tritiated thymidine uptake was analyzed by liquid scintillation.
In this example, experimental conditions were identical to those utilized in obtaining the data in Example 2.

[5] = tested on: CEM/VLB10 human leukemia cells; experiment: Sensitization of CEM/VLB10 cells to Vincristine by MDR-oligos in 5% oxygen; assay type: cell-based; settings: 5% oxygen; for IC50: Vincristine IC50 after 4 days with 10 μM oligo, read-out: IC50 dose; for Relative sensitization (fold increase): to Vincristine, 10 μM oligo
Procedure: as §2

[6] = tested on: 8226/Dox human myeloma cells; experiment: Sensitization of 8226/Dox cells to Vincristine by MDR-oligos in 5% oxygen; assay type: cell-based; settings: 5% oxygen; for IC50: Vincristine IC50 after 4 days with 10 μM oligo, read-out: IC50 dose; for Relative sensitization (fold increase): to Vincristine, 10 μM oligo
Procedure: as §2

[7] = tested on: 8226/Dox human myeloma cells; experiment: Sensitivity of 8226/Dox cells to Vincristine with increasing time after Vincristine exposure; assay type: cell-based; settings: for Relative Sensitization (fold increase) Day 5: Day 5 after Vincristine exposure; for Relative Sensitization (fold increase) Day 7: Day 7 after Vincristine exposure; for Relative Sensitization (fold increase) Day 9: Day 9 after Vincristine exposure
Procedure: as §2, with “Tumor cells were treated in vitro with 10 μM of the indicated oligo for 4 days at 37° C., then counted, dispensed into individual tubes, and pulsed with Vincristine at various doses (serial 5-fold dilutions) for 3 hrs.” left out
As shown in this example, it was determined that there was an increase in sensitivity of multidrug-resistant 8226/Dox human myeloma cells to Vincristine with increasing time of incubation following initial exposure to Vincristine. The experimental conditions were identical to those utilized in obtaining the data shown in Table 7, except that the present experiment had two additional time points.

[8] = tested on: A427 human non-small-cell lung adenocarcinoma cell line; experiment: Sensitization of A427 lung cancer cells to etoposide by MRP-oligos; assay type: cell-based
Procedure: The human non-small-cell lung adenocarcinoma cell line A427 was treated with oligos at various concentrations for 4 days in vitro. The cells then were pulsed with various concentrations of etoposide (range 1.6×10^-4 to 1×10^-6 M) for 3 hrs. Next, cells were trypsinized and seeded by volume into 96-well plates with 12 replicates per treatment condition. Three days later, tritiated thymidine was added and the cells harvested the next day.

## SJ(34A)mdr: SEQ ID NO 6: TCGAATGAGC TCAGGCTT (TCGAATGAGCTCAGGCTT; chemistry not given here)
[1]
  Fold-Increase in sensitivity to drug treatment: > 7500 fold
[2]
  Estimated Mean Count (cpm): 100,300 cpm
  Fold Increase in drug sensitivity: 188 fold

## SJ(34)mdr: SEQ ID NO 5: TCGAATGAGC TCAGGCTTCC (TCGAATGAGCTCAGGCTTCC; chemistry not given here)
[1]
  Fold-Increase in sensitivity to drug treatment: 293 fold

## MDR-APT-4: MDR-aptameric oligonucleotide, SEQ ID NO 91: ACTCGCCTCCCACGTAGTGCTT (ACTCGCCTCCCACGTAGTGCTT; chemistry not given here)
[3]
  Fold Increase in Drug Sensitization: > 40,000 fold

## OL(3)mdr: SEQ ID NO 37: TGCCCACCAG AGCCAGCGTC (TGCCCACCAGAGCCAGCGTC; chemistry not given here)
[4]
  IC50: 100 nM
  Relative sensitization (fold increase): 11 fold increase
[5]
  IC50: 200 nM
  Relative sensitization (fold increase): 50 fold increase

## OL(12B)mdr: SEQ ID NO 14: CGCGCTCCGG GCAACATG (CGCGCTCCGGGCAACATG; chemistry not given here)
[1]
  Fold-Increase in sensitivity to drug treatment: 40 fold
[2]
  Estimated Mean Count (cpm): 159,500 cpm
  Fold Increase in drug sensitivity: 17.3 fold

## SJ(36)mdr: SEQ ID NO 39: CCAGGGCTTCTTGGACAACCTA (CCAGGGCTTCTTGGACAACCTA; chemistry not given here)
[5]
  IC50: 160 nM
  Relative sensitization (fold increase): 62 fold increase

## 5(1)mdr: SEQ ID NO 10: CCCTACCTCGCGCTCCTTGGAACGGC (CCCTACCTCGCGCTCCTTGGAACGGC; chemistry not given here)
[6]
  IC50: 180 nM
  Relative sensitization (fold increase): 2.5 fold increase
[7]; oligo 2 μM
  Relative Sensitization (fold increase) Day 5: 3.4 fold increase
  Relative Sensitization (fold increase) Day 7: 26.9 fold increase
  Relative Sensitization (fold increase) Day 9: 724 fold increase
[7]; oligo 10 μM
  Relative Sensitization (fold increase) Day 5: 2.1 fold increase
  Relative Sensitization (fold increase) Day 7: 20.5 fold increase
  Relative Sensitization (fold increase) Day 9: 423 fold increase
[5]
  IC50: 90 nM
  Relative sensitization (fold increase): 111 fold increase

## OL(10)mdr: SEQ ID NO 11: GCTCCCAGCT TTGCGTGCCC (GCTCCCAGCTTTGCGTGCCC; chemistry not given here)
[1]
  Fold-Increase in sensitivity to drug treatment: 40 fold

## OL(12)mdr: SEQ ID NO 12: GCGCGCTCCG GGCAACATGG (GCGCGCTCCGGGCAACATGG; chemistry not given here)
[1]
  Fold-Increase in sensitivity to drug treatment: 200 fold
[2]
  Estimated Mean Count (cpm): 159,500 cpm
  Fold Increase in drug sensitivity: 233 fold

## OL(4)MRP: SEQ ID NO 76: CGATGCCGAC CTTTTCTCC (CGATGCCGACCTTTTCTCC; chemistry not given here)
[8]; oligo 1 μM
  Etoposide (VP-16) Relative Sensitization (fold increase): 3 fold increase

## CO[C@@H]1[C@@H](OC(N)=O)[C@@H](O)[C@H](Oc2ccc3c(O)c(NC(=O)c4ccc(O)c(CC=C(C)C)c4)c(=O)oc3c2C)OC1(C)C [Novobiocin, novobiocin, reference compound]
[8]; novobiocin used at the same time as VP-16
  Etoposide (VP-16) Relative Sensitization (fold increase): 5.0 fold increase
[8]; novobiocin used at the same time as VP-16, listed as novobiocin
  Etoposide (VP-16) Relative Sensitization (fold increase): about 5 fold increase

## 5(3)MRP: SEQ ID NO 42: CGGCGGCGGCGGCGCAGGGAGCCGGG (CGGCGGCGGCGGCGCAGGGAGCCGGG; chemistry not given here)
[8]; oligo 10 μM
  Etoposide (VP-16) Relative Sensitization (fold increase): 5 fold increase

## OL(6A)mdr: SEQ ID NO 2: GTGCTCAGCC CACGCCCCGG (GTGCTCAGCCCACGCCCCGG; chemistry not given here)
[4]
  IC50: 88 nM
  Relative sensitization (fold increase): 12.5 fold increase

## OL(14)MRP: SEQ ID NO 44: GCGGGTCGGA GCCATCGGCG (GCGGGTCGGAGCCATCGGCG; chemistry not given here)
[8]; oligo 10 μM
  Etoposide (VP-16) Relative Sensitization (fold increase): 3 fold increase

## OL(12A)mdr: SEQ ID NO 13: CGCGCTCCGGGCAACATGGTCC (CGCGCTCCGGGCAACATGGTCC; chemistry not given here)
[1]
  Fold-Increase in sensitivity to drug treatment: 375 fold
[2]
  Estimated Mean Count (cpm): 159,500 cpm
  Fold Increase in drug sensitivity: 414 fold

## SJ(34C)mdr: SEQ ID NO 8: AGCTCAGGCT TCCTGTGGCA (AGCTCAGGCTTCCTGTGGCA; chemistry not given here)
[1]
  Fold-Increase in sensitivity to drug treatment: 2182 fold

## 5(2)MRP: SEQ ID NO 43: CGGTGGCGCGGGCGGCGGCGGGCACC (CGGTGGCGCGGGCGGCGGCGGGCACC; chemistry not given here)
[8]; oligo 10 μM
  Etoposide (VP-16) Relative Sensitization (fold increase): 6 fold increase

## COc1cc([C@@H]2c3cc4c(cc3[C@@H](O[C@@H]3O[C@@H]5CO[C@@H](C)O[C@H]5[C@H](O)[C@H]3O)[C@H]3COC(=O)[C@H]23)OCO4)cc(OC)c1O [Etoposide (VP-16), etoposide, reference compound]
[8]; Homo sapiens, A-427, read-out: Etoposide (VP-16) IC50, Media Control (no oligo)
  IC50: 36000 nM
[8]; read-out: Etoposide (VP-16) IC50, Media Control (no oligo)
  IC50: 50000 nM and 60000 nM

## OL(2)MRP: SEQ ID NO 49: CGGTGATGCT GTTCGTGCCC (CGGTGATGCTGTTCGTGCCC; chemistry not given here)
[8]; oligo 10 μM
  Etoposide (VP-16) Relative Sensitization (fold increase): 2.4 fold increase

## PA(1)mdr: SEQ ID NO 40: GCGGGAGGTGAGTCACTGTCTCC (GCGGGAGGTGAGTCACTGTCTCC; chemistry not given here)
[6]
  IC50: 28 nM
  Relative sensitization (fold increase): 16 fold increase
[7]; oligo 2 μM
  Relative Sensitization (fold increase) Day 5: 2.3 fold increase
  Relative Sensitization (fold increase) Day 7: 27 fold increase
  Relative Sensitization (fold increase) Day 9: 1309 fold increase
[7]; oligo 10 μM
  Relative Sensitization (fold increase) Day 5: 6.3 fold increase
  Relative Sensitization (fold increase) Day 7: 28 fold increase
  Relative Sensitization (fold increase) Day 9: 550 fold increase
[5]
  IC50: 190 nM
  Relative sensitization (fold increase): 53 fold increase

## OL(2)mdr: SEQ ID NO 35: GCAACCAGCA CCCCAGCACC (GCAACCAGCACCCCAGCACC; chemistry not given here)
[4]
  IC50: 300 nM
  Relative sensitization (fold increase): 3.7 fold increase
[5]
  IC50: 160 nM
  Relative sensitization (fold increase): 62 fold increase

## OL(3)MRP: SEQ ID NO 62, position 2848: CCCTGGACCG CTGACGCCCG (CCCTGGACCGCTGACGCCCG; chemistry not given here)
[8]; oligo 10 μM
  Etoposide (VP-16) Relative Sensitization (fold increase): 5 fold increase

## OL(5)mdr: SEQ ID NO 21: TCTGGACTTT GCCCGCCGCC (TCTGGACTTTGCCCGCCGCC; chemistry not given here)
[5]
  IC50: 150 nM
  Relative sensitization (fold increase): 67 fold increase

## OL(6)MRP: SEQ ID NO 60: GGGCCAGGCT CACGCGCTGC (GGGCCAGGCTCACGCGCTGC; chemistry not given here)
[8]; oligo 10 μM
  Etoposide (VP-16) Relative Sensitization (fold increase): 8 fold increase

## OL(5)MRP: SEQ ID NO 48: CTGCGGCCCG GAAAACATCA (CTGCGGCCCGGAAAACATCA; chemistry not given here)
[8]; oligo 10 μM
  Etoposide (VP-16) Relative Sensitization (fold increase): 6 fold increase
